According to patent US20230002736A1, “ENDODERM DIFFERENTIATION FROM PLURIPOTENT STEM CELL LINES” (priority 2019, published 2023):

Experiments:
iPSC lines = assay type: cell-based
Experimental: Induction of Definitive Endoderm (days 1-7). iPSCs were plated on 6-, 12-, or 96-well Matrigel-coated plates at different densities for differentiation in iPSC media containing 10 μM Y-27632 and 2 μM doxycycline. For example, typical plating density in a single well of a 6-well plate was 500,000 cells or 20,000 cells per well for 96-well plates. The differentiation process consisted of one week of RPMI media supplemented with Gem21 NeuroPlex without insulin at 1× (supplied at 50×, Gemini Bio-Products West Sacramento, Calif., catalog #400-962, or supplemented with Gibco B27 without insulin at 1×), Glutagro at 1× (Corning, Manassas, Va., catalog #25-015-CI, non-essential amino acids at 1× (Gibco, catalog #11-140-050), sodium butyrate (0.5 mM, Sigma Aldrich, catalog #B5887) and recombinant human Activin A (100 ng/mL, Peprotech, Rocky Hill, N.J., catalog #120-14E) for 7 days. On day 1, 2% KnockOut Serum Replacement (KSR; Gibco Catalog #10828028), CHIR-99021 (10 ng/mL, Selleckchem catalog #S2924), PI-103 (10 ng/mL,Selleckchem catalog #S1038), recombinant human BMP4 (10 ng/mL, Peprotech catalog #120-05ET) and FGF2 (20 ng/mL, Peprotech catalog #100-18B) were added to the media. On day 2, 1% KSR, PI-103 (10 ng/mL) and BMP4 (10 ng/mL) and FGF2 (20 ng/mL) and on day 3, 0.2% KSR and PI-103 (10 ng/mL) were added to the media. Doxycycline hyclate (Acros Organics catalog #446061000) was added throughout definitive endoderm induction starting on day 0 (passage day) at various concentrations, as described herein, with a standard concentration being 2 μM. These steps can be performed at normal room oxygen at about 20% or at low oxygen between 4 and 6%.

iPSC-derived hepatocytes = assay: RNA Sequencing of iPSCs fully differentiated to hepatocytes; assay type: cell-based, human; conditions: 5 paired iPSCs, doxycycline during endoderm phase
Experimental: Differentiation of Definitive Endoderm to hepatocytes (days 8-23). iPSC-derived human endoderm prepared as described herein was cultured continuously on Matrigel or split 1:2 onto Matrigel plates for hepatic differentiation. Definitive endoderm (DE) was cultured in Iscove's modified Dulbecco's medium (Gibco catalog #supplemented with Gem21 NeuroPlex without insulin (Gemini Bio-Products catalog #400-962), Glutagro, non-essential amino acids (1×, Gibco catalog #11-140-050), 0.3 mM monothioglycerol, 5 μg/mL human insulin (Sigma), and 100 nM dexamethasone. To induce hepatoblasts, cells were treated with FGF2 (10 ng/mL) and BMP4 (20 ng/mL) for 5 days. During this phase, cells can be passaged using accutase and split at least 2 to 4× to increase yield and quality of final product again onto Matrigel with the addition of 10 μM Y-27632 and 2 μM doxycycline to increase cell survival during accutase treatment and splitting. This phase and the next were grown at low oxygen (4-6%) and 5% CO2. […]
RNA isolation, Real-Time PCR analysis, and RNA Sequencing. […] Quantitative Real-Time PCR was performed using FastStart Universal SYBR Green, Roche Diagnostics (Indianapolis, IN). […] On average, 27,642,407 raw reads were obtained and mapped. Raw reads were subjected to quality control. Clean reads were analyzed by Gene Ontology analysis, KEGG pathway enrichment, and cluster analysis. […]

iPS cells = assay: Growth of iPS cells in the presence of doxycycline (dose response); assay type: cell-based, human; conditions: FIG. 7B
Experimental: The media conditions to maintain human iPSCs have all been previously described (40). For passaging the cells Accutase (StemCell Technologies, Vancouver, BC) was used for 5 minutes at 37° C. and then stopped with iPSC media containing 10 μM Y-27632 (Selleckchem, Houston, Tex.) (41). The dissociated IPSCs were seeded on new plates with media containing Y-27632, and after 24 hours replaced with media alone. iPSC media was changed daily.
We also did a complete dose-response curve on the growth of iPS cells in the presence of doxycycline up to 30 μg/mL, with toxicity observed beginning at the 10 μg/mL level (FIG. 7B). Beyond effects on iPS cells, we further confirmed the ability of doxycycline to support the induction of iPSCs to endoderm. For this we performed immunohistochemical staining for markers of endoderm, including CXCR4, SOX17, FOXA2, and HNF16 (FIG. 2A and 2B). […] More importantly, the ML1 protocol allowed induction of complete monolayers of endoderm from virtually any iPSC. Compared to many of the other protocols that we tested for poorly differentiating iPS cell lines(6, 8), we could actually differentiate most lines using the ML1 protocol, but only a fraction of them using the other protocols. […]

## C[C@H]1c2cccc(O)c2C(=O)C2=C(O)[C@]3(O)C(=O)C(C(N)=O)=C(O)[C@@H](N(C)C)[C@@H]3[C@@H](O)[C@@H]21 [doxycycline]
iPSC lines; by the third day of induction
  concentration giving total cell death: > 10000 ng/mL
iPSC lines; endoderm induction
  concentration tolerated by the cells: up to 10 μg/mL
iPSC-derived hepatocytes
  effect on final iPSC-derived hepatocytes (principal component analysis): did not alter the final product
iPS cells
  titration of doxycycline, outcome in words: an optimal level of doxycycline and a toxic level
iPS cells; dose-response up to 30 μg/mL
  concentration at which toxicity begins: 10000 ng/mL
